Numbers after ± are expanded uncertainties.
Settings: 101.33 kPa, Liquid, Buoyancy - hydrostatic balance with magnetic suspension - one sinker

Question: For CCO [ethanol], which mass density (313.2 K) is on record?
Answer: 768.9 ± 3.5 kg/m3

Question: And the mass density (338.2 K)?
Answer: 752.7 ± 1.7 kg/m3

Question: And the mass density (343.2 K)?
Answer: 732.4 ± 1.2 kg/m3

— the NIST ThermoML archive (doi:10.1021/je900830s)
